System: clone 45.1 (GDE2)
Test: Reverse Northern blot of ventral spinal cord explants grown with or without retinol (differential subtraction screen)
Type: cell-based, chick
Details: explants exposed to retinol, compared with GAPDH
Experimental: Ventral neural explants were dissected from brachial level HH St17 chick embryos and cultured as described previously for 18 hours (1). The screen was designed to maximize isolation of genes responsive to motor neuron-derived retinoids however genes responsive to paraxial mesoderm-derived retinoids would also have been included. RNA from 100 explants was isolated using Trizol (GIBCO-BRL). cDNAs were generated and amplified using the Marathon cDNA PCR Amplification kit (Stratagene) and the subtraction procedure carried out using the Stratagene PCR Select Suppression kit. Reverse Northern blot analysis was performed as described in the latter kit.
Spinal motor neuron generation in the chick requires the integration of three different extrinsic signals: sonic hedgehog, fibroblast growth factors, and retinoic acid (RA) (2, 3). All three signaling pathways have been implicated in initial dorsal-ventral patterning of progenitor domains in the spinal cord (FIG. 1A). However, RA signaling is also necessary for the induction of Oligodendrocyte transcription factor 2 (Olig2) in progenitors, and their subsequent differentiation into postmitotic motor neurons (FIG. 1A) (2). […]

CC1=C(/C=C/C(C)=C/C=C/C(C)=C/CO)C(C)(C)CCC1 [retinol]
increase in expression of clone 45.1: approximately 50 fold
